Columns and labels:
[1] = test system: CA1 region of the hippocampus; test: Excitotoxic injury in organotypic hippocampal slice cultures subjected to NMDA; format: cell-based, Rat; conditions: administered simultaneously with NMDA, data not published
[2] = test system: NTS1 neurotensin receptor; conditions: replacement of Tle with Ile; cited from earlier work
From the text: Tle and Ile are structural isomers belonging to the same class of leucines with the same atomic composition (C6H13NO2) but they have different chemical structures, including different bond coordination and stereochemistry (Figure 1). Thus, their presence in the peptide structure led to diverse results. In fact, incorporation of Ile into the 9th position of the peptide chain caused a decrease in the analgesic activity in vivo when compared with PK20, having a tert-leucine (Tle9) in the corresponding position. Nonetheless, [Ile^9]PK20 produced the maximal pain-relieving effect, although wi ...

## HELM PEPTIDE1{[Cc1cc(O)cc(C)c1C[C@H](N)C(=O)[*:2]].[dK].F.F.K.K.P.F.I.L}$$$$V2.0 (N-terminus assumed; SMILES CC[C@H](C)[C@H](NC(=O)[C@H](Cc1ccccc1)NC(=O)[C@@H]1CCCN1C(=O)[C@H](CCCCN)NC(=O)[C@H](CCCCN)NC(=O)[C@H](Cc1ccccc1)NC(=O)[C@H](Cc1ccccc1)NC(=O)[C@@H](CCCCN)NC(=O)[C@@H](N)Cc1c(C)cc(O)cc1C)C(=O)N[C@@H](CC(C)C)C(=O)O) [[Ile^9]PK20, analogue of PK20 with Ile instead of Tle at position 9]
[1]; dose 25 ng/mL
  extent of damage to the CA1 region of the hippocampus: 8.53% ± 2.65
[1]; dose 50 ng/mL
  extent of damage to the CA1 region of the hippocampus: 19.04% ± 8.52
[1]; dose 100 ng/mL
  extent of damage to the CA1 region of the hippocampus: 8.62% ± 0.62
[2]
  binding at NTS1 neurotensin receptor relative to PK20: reduced binding

From publication PMC9500858 (International Journal of Molecular Sciences, 2022)
